Assay results taken from patent US20100063009A1, “Pharmaceutical Combination Comprising 6-Dimethylaminomethyl-1-(3-methoxy-phenyl)-cyclohexane-1.3-diol and an NSAID” (GRUENENTHAL GmbH, priority 2008, published 2010).
“And” between values parts separate entries of the source, which are not always exact repeats. Equal entries are not always repeated. Structures can show the parent of a compound that is named as a salt. Where two headings read alike, the source gives them in different places.

Tested on: inflamed rat hind paw
Assay: Randall-Selitto test in rats (carrageenan-induced inflammatory pain, mechanical nociceptive threshold)
Assay type: in vivo
Conditions: for ED50: Rattus norvegicus; for timepoint of peak effect: substance applied alone, A i.v., NSAIDs i.p.
Protocol: The weight ratios of the components (a) and (b) that will lead to a supra-additive effect (synergistic effect) of the inventive pharmaceutical composition may be determined via the test of Randall and Selitto as described in Arch. Int. Pharmacodyn., 1957, 111: 409 to 419, which is a model for inflammatory pain. The respective part of the literature is hereby incorporated by reference and forms part of the present disclosure.
Acute inflammation is induced by an intraplantar injection of 0.1 ml of a carrageenan solution (0.5% in distilled water) into one hind paw. The mechanical nociceptive threshold is measured 4 hours after carrageenan injection using an Algesiometer (Ugo Basile, Italy). The device generates a mechanical force with a linear increase over time. The force is applied to the dorsal surface of the inflamed rat hind paw via a cone-shaped stylus with a rounded tip (2 mm tip diameter). The nociceptive threshold is defined as the force (in grams) at which the rat vocalises (cut-off force 250 g). The mechanical nociceptive threshold is measured at different timepoints after the drug or vehicle administration. The antinociceptive and antihyperalgesic activity of the tested substance is expressed as percentages of the maximal possible effect (% MPE). The group size is n=10.
The interactions studies presented herein were performed using equieffective doses of the two components, calculated from the ratio of the respective ED50 values of the components if administered alone.
The route of administration was intravenous (i.v.) for (1RS,3RS,6RS)-6-dimethylaminomethyl-1-(3-methoxy-phenyl)-cyclohexane-1,3-diol hydrochloride (A) and intraperitoneal (i.p.) for the NSAIDs diclofenac, ibuprofen, metamizol-sodium and naproxen. […] (diclofenac, ibuprofen) and 45 min p. appl. (naproxen, metamizol-sodium).

[1] = ip, measured at peak effect 30 min (diclofenac, ibuprofen) or 45 min (naproxen, metamizol-sodium) p. appl., n=10, read-out: ED50 of the NSAID applied alone

Row | Compound | ED50 [1] [mg/kg] | timepoint of peak effect [min p. appl.] | ED50 of the NSAID applied alone (i.p., measured at peak effect 30 min (diclofenac, ibuprofen) or 45 min (naproxen, metamizol-sodium) p. appl., n=10) | ED50 (iv, measured at peak effect 15 min p. appl., 4 h after carrageenan, % MPE, n=10, 95% range in brackets, read-out: ED50 of A applied alone) [mg/kg] | ED50 of A applied alone (i.v., measured at peak effect 15 min p. appl., 4 h after carrageenan, % MPE, n=10, 95% range in brackets, hydrochloride)
1 | O=C(O)Cc1ccccc1Nc1c(Cl)cccc1Cl [Diclofenac, diclofenac] | 146 | 30 | – | – | –
2 | COc1ccc2cc([C@H](C)C(=O)O)ccc2c1 [Naproxen, naproxen] | 164 | 45 | – | – | –
3 | Cc1c(N(C)CS(=O)(=O)[O-])c(=O)n(-c2ccccc2)n1C.[Na+] [Metamizol-Sodium, metamizol-sodium] | – | 45 | 88.1 (77.5-98.3) mg/kg | – | –
4 | CC(C)Cc1ccc(C(C)C(=O)O)cc1 (centres unmarked) [Ibuprofen] | 139 | 30 | – | – | –
5 | COc1cccc([C@@]2(O)C[C@H](O)CC[C@@H]2CN(C)C)c1 (racemic) [A, (1RS,3RS,6RS)-6-dimethylaminomethyl-1-(3-methoxy-phenyl)-cyclohexane-1,3-diol hydrochloride] | – | 15 | – | 15.8 | 14.5 (13.3-15.6) mg/kg and 14.1 (13.2-15.1) mg/kg
